The test system of the experiment is IFNγ-Induced NO Production in RAW 264.7 cells. Put plainly: Nitric Oxide Suppression Assay (suppression of IFNγ-induced NO production). It is filed as cell-based. The settings on record: RAW264.7; RAW 264.7 mouse macrophage cells, 20 ng/mL interferon gamma, Griess detection; single curve fit to mean data of n=2-3. Here is the method: RAW 264.7, a mouse macrophage cell line, was obtained from American Type Culture Collection (Manassas Va.) and maintained in the log phase of growth in Dulbecco's Modified Eagle's Medium (DMEM), 10% heat inactivated fetal calf serum and 100 units/mL antibiotic-antimycotic (AA). Cells were cultured and maintained in a humidified incubator at 37° C. under 5% CO2 and 95% air. Cells were sub-cultured every 3 days by scraping and were not used beyond passage 20. All cell culture supplies were obtained from Life Technologies (Grand Island, N.Y.).
RAW 264.7 cells were plated 1 day in advance of experiment at a concentration of 80,000 cells/well onto CellBIND® 96 well plates (Corning, N.Y.) in a total volume of 100 μL. The next day, pre-treat cells with compounds (from 3 μM to 0.3 nM serially diluted in a 10 point curve) from a 10× stock by adding 10 μL per well in complete DMEM media containing 10% fetal calf serum. The plates were centrifuged for 3 minutes at 400×g at room temperature followed by 2 hour incubation at 37° C. The cells were then incubated overnight at 37° C. with 10 μL of the insult, interferon gamma (R&D Systems, Minneapolis, Minn.), from a 10× stock for a final concentration of 20 ng/mL. The plates were centrifuged for 3 minutes at 400×g at room temperature followed by 18 hour incubation at 37° C. The following day, transfer 50 μL cell culture supernatant from each well into a clear bottom 96 well plate and follow the instructions from Promega's Griess Detection Kit #G2930 (Madison, Wis.) which involves the addition of 50 μL of the provided sulfanilamide solution for a 5-10 minute incubation at room temperature. Next add 50 μL of the provided N-1-napthylethylenediamine dihydrochloride (NED) solution for a 5-10 minute incubation at room temperature and protected from light. If any air bubbles were introduced into the well, the plates need to be centrifuged for 5 minutes at 400×g at room temperature to avoid interference with absorbance readings. The plates were read for absorbance within 30 minutes with a filter between 520 nm and 550 nm.
For the ability of compounds to suppress the increase in nitric oxide release, the percent maximal intensity of nitric oxide detected in each well was normalized to that induced by the peak value for 20 ng/mL of interferon gamma alone and plotted against the compound concentration to calculate IC50 values and to control for plate-to-plate variability. Concentration-response data were analyzed using GraphPad Prism (San Diego, Calif.); the IC50 values were derived from a single curve fit to the mean data of n=2-3, in duplicates.
All compounds were dissolved in dimethyl sulfoxide at 10 mM stock solutions and tested at a concentration that the dimethyl sulfoxide levels never exceeded 1%.

In turn, `COC(=O)[C@@]1(C)CC[C@]2(C)CC[C@@]3(C)[C@]4(C)CC[C@H]5C(C)(C)C(=O)C(C#N)=C[C@]5(C)C4=CC(=O)[C@]3(O)[C@@H]2C1` [Example 1, (2S,4aS,6aS,6bR,8aR,12aS,14aS,14bR)-methyl 11-cyano-14a-hydroxy-2,4a,6a,6b,9,9,12a-heptamethyl-10,14-dioxo-1,2,3,4,4a,5,6,6a,6b,7,8,8a,9,10,12a,14,14a,14b-octadecahydropicene-2-carboxylate] had an IC50 of 16.1 nM.
Next, `COC(=O)[C@@]1(C)CC[C@]2(C)CC[C@]3(C)[C@H](C(=O)C=C4[C@@]5(C)C=C(C#N)C(=O)C(C)(C)[C@@H]5CC[C@]43C)[C@@H]2C1` [Example 2, (2S,4aS,6aR,6bS,8aR,12aS,14aR,14bS)-methyl 11-cyano-2,4a,6a,6b,9,9,12a-heptamethyl-10,14-dioxo-1,2,3,4,4a,5,6,6a,6b,7,8,8a,9,10,12a,14,14a,14b-octadecahydropicene-2-carboxylate]: 201 nM; `CC1(C)C(=O)C(C#N)=C[C@]2(C)C3=CC(=O)[C@]4(O)[C@@H]5C[C@@](C)(C(=O)NCc6cnco6)CC[C@]5(C)CC[C@@]4(C)[C@]3(C)CC[C@@H]12` [Example 3, (2S,4aS,6aS,6bR,8aR,12aS,14aS,14bR)-11-cyano-14a-hydroxy-2,4a,6a,6b,9,9,12a-heptamethyl-N-(1,3-oxazol-5-ylmethyl)-10,14-dioxo-1,2,3,4,4a,5,6,6a,6b,7,8,8a,9,10,12a,14,14a,14b-octadecahydropicene-2-carboxamide]: 14.6 nM.
In the case of `CC1(C)C(=O)C(C#N)=C[C@]2(C)C3=CC(=O)[C@]4(O)[C@@H]5C[C@@](C)(C(=O)O)CC[C@]5(C)CC[C@@]4(C)[C@]3(C)CC[C@@H]12` [Example 3D, (2S,4aS,6aS,6bR,8aR,12aS,14aS,14bR)-11-cyano-14a-hydroxy-2,4a,6a,6b,9,9,12a-heptamethyl-10,14-dioxo-1,2,3,4,4a,5,6,6a,6b,7,8,8a,9,10,12a,14,14a,14b-octadecahydropicene-2-carboxylic acid], the IC50 was 301 nM.
As to `CC1(C)C(=O)C(C#N)=C[C@]2(C)C3=CC(=O)[C@]4(O)[C@@H]5C[C@@](C)(C(=O)NCCO)CC[C@]5(C)CC[C@@]4(C)[C@]3(C)CC[C@@H]12` [Example 4, (2S,4aS,6aS,6bR,8aR,12aS,14aS,14bR)-11-cyano-14a-hydroxy-N-(2-hydroxyethyl)-2,4a,6a,6b,9,9,12a-heptamethyl-10,14-dioxo-1,2,3,4,4a,5,6,6a,6b,7,8,8a,9,10,12a,14,14a,14b-octadecahydropicene-2-carboxamide], the IC50 came to 55.4 nM. This IC50 lies about 5.4-fold lower than the previous one.
`CC1(C)C(=O)C(C#N)=C[C@]2(C)C3=CC(=O)[C@]4(O)[C@@H]5C[C@@](C)(C(=O)NCc6ccnnc6)CC[C@]5(C)CC[C@@]4(C)[C@]3(C)CC[C@@H]12` [Example 5, (2S,4aS,6aS,6bR,8aR,12aS,14aS,14bR)-11-cyano-14a-hydroxy-2,4a,6a,6b,9,9,12a-heptamethyl-10,14-dioxo-N-(pyridazin-4-ylmethyl)-1,2,3,4,4a,5,6,6a,6b,7,8,8a,9,10,12a,14,14a,14b-octadecahydropicene-2-carboxamide] registered an IC50 of 50 nM.
Next, `CCCN(C)C(=O)[C@@]1(C)CC[C@]2(C)CC[C@@]3(C)[C@]4(C)CC[C@H]5C(C)(C)C(=O)C(C#N)=C[C@]5(C)C4=CC(=O)[C@]3(O)[C@@H]2C1` [Example 6, (2S,4aS,6aS,6bR,8aR,12aS,14aS,14bR)-11-cyano-14a-hydroxy-N,2,4a,6a,6b,9,9,12a-octamethyl-10,14-dioxo-N-propyl-1,2,3,4,4a,5,6,6a,6b,7,8,8a,9,10,12a,14,14a,14b-octadecahydropicene-2-carboxamide]: 35.5 nM; `CC(C)(C)CNC(=O)[C@@]1(C)CC[C@]2(C)CC[C@@]3(C)[C@]4(C)CC[C@H]5C(C)(C)C(=O)C(C#N)=C[C@]5(C)C4=CC(=O)[C@]3(O)[C@@H]2C1` [Example 7, (2S,4aS,6aS,6bR,8aR,12aS,14aS,14bR)-11-cyano-N-(2,2-dimethylpropyl)-14a-hydroxy-2,4a,6a,6b,9,9,12a-heptamethyl-10,14-dioxo-1,2,3,4,4a,5,6,6a,6b,7,8,8a,9,10,12a,14,14a,14b-octadecahydropicene-2-carboxamide]: 22.4 nM.
As for `CC1(C)C(=O)C(C#N)=C[C@]2(C)C3=CC(=O)[C@]4(O)[C@@H]5C[C@@](C)(C(=O)NCc6cccnn6)CC[C@]5(C)CC[C@@]4(C)[C@]3(C)CC[C@@H]12` [Example 8, (2S,4aS,6aS,6bR,8aR,12aS,14aS,14bR)-11-cyano-14a-hydroxy-2,4a,6a,6b,9,9,12a-heptamethyl-10,14-dioxo-N-(pyridazin-3-ylmethyl)-1,2,3,4,4a,5,6,6a,6b,7,8,8a,9,10,12a,14,14a,14b-octadecahydropicene-2-carboxamide], the IC50 amounted to 27.9 nM.
Consider `Cn1cc(CNC(=O)[C@@]2(C)CC[C@]3(C)CC[C@@]4(C)[C@]5(C)CC[C@H]6C(C)(C)C(=O)C(C#N)=C[C@]6(C)C5=CC(=O)[C@]4(O)[C@@H]3C2)cn1` [Example 9, (2S,4aS,6aS,6bR,8aR,12aS,14aS,14bR)-11-cyano-14a-hydroxy-2,4a,6a,6b,9,9,12a-heptamethyl-N-[(1-methyl-1H-pyrazol-4-yl)methyl]-10,14-dioxo-1,2,3,4,4a,5,6,6a,6b,7,8,8a,9,10,12a,14,14a,14b-octadecahydropicene-2-carboxamide], for which the IC50 amounted to 12.8 nM.
On to `CC1(C)C(=O)C(C#N)=C[C@]2(C)C3=CC(=O)[C@]4(O)[C@@H]5C[C@@](C)(C(=O)NCCN6CCOCC6)CC[C@]5(C)CC[C@@]4(C)[C@]3(C)CC[C@@H]12` [Example 10, (2S,4aS,6aS,6bR,8aR,12aS,14aS,14bR)-11-cyano-14a-hydroxy-2,4a,6a,6b,9,9,12a-heptamethyl-N-[2-(morpholin-4-yl)ethyl]-10,14-dioxo-1,2,3,4,4a,5,6,6a,6b,7,8,8a,9,10,12a,14,14a,14b-octadecahydropicene-2-carboxamide], for which inhibition was half-maximal at 23.9 nM (IC50). Compared with the last molecule, the IC50 is about 1.9-fold higher.
`Cc1ccccc1CNC(=O)[C@@]1(C)CC[C@]2(C)CC[C@@]3(C)[C@]4(C)CC[C@H]5C(C)(C)C(=O)C(C#N)=C[C@]5(C)C4=CC(=O)[C@]3(O)[C@@H]2C1` [Example 11, (2S,4aS,6aS,6bR,8aR,12aS,14aS,14bR)-11-cyano-14a-hydroxy-2,4a,6a,6b,9,9,12a-heptamethyl-N-(2-methylbenzyl)-10,14-dioxo-1,2,3,4,4a,5,6,6a,6b,7,8,8a,9,10,12a,14,14a,14b-octadecahydropicene-2-carboxamide] gave an IC50 of 140 nM.
As for `Cn1ccc(CNC(=O)[C@@]2(C)CC[C@]3(C)CC[C@@]4(C)[C@]5(C)CC[C@H]6C(C)(C)C(=O)C(C#N)=C[C@]6(C)C5=CC(=O)[C@]4(O)[C@@H]3C2)n1` [Example 12, (2S,4aS,6aS,6bR,8aR,12aS,14aS,14bR)-11-cyano-14a-hydroxy-2,4a,6a,6b,9,9,12a-heptamethyl-N-[(1-methyl-1H-pyrazol-3-yl)methyl]-10,14-dioxo-1,2,3,4,4a,5,6,6a,6b,7,8,8a,9,10,12a,14,14a,14b-octadecahydropicene-2-carboxamide], the midpoint of inhibition, the IC50, lay at 14.1 nM.
Turning to `COc1ccccc1CNC(=O)[C@@]1(C)CC[C@]2(C)CC[C@@]3(C)[C@]4(C)CC[C@H]5C(C)(C)C(=O)C(C#N)=C[C@]5(C)C4=CC(=O)[C@]3(O)[C@@H]2C1` [Example 13, (2S,4aS,6aS,6bR,8aR,12aS,14aS,14bR)-11-cyano-14a-hydroxy-N-(2-methoxybenzyl)-2,4a,6a,6b,9,9,12a-heptamethyl-10,14-dioxo-1,2,3,4,4a,5,6,6a,6b,7,8,8a,9,10,12a,14,14a,14b-octadecahydropicene-2-carboxamide], inhibition was half-maximal at 60.7 nM (IC50).
Consider `CCC(O)CNC(=O)[C@@]1(C)CC[C@]2(C)CC[C@@]3(C)[C@]4(C)CC[C@H]5C(C)(C)C(=O)C(C#N)=C[C@]5(C)C4=CC(=O)[C@]3(O)[C@@H]2C1` (stereo partly drawn) [Example 14, (2S,4aS,6aS,6bR,8aR,12aS,14aS,14bR)-11-cyano-14a-hydroxy-N-(2-hydroxybutyl)-2,4a,6a,6b,9,9,12a-heptamethyl-10,14-dioxo-1,2,3,4,4a,5,6,6a,6b,7,8,8a,9,10,12a,14,14a,14b-octadecahydropicene-2-carboxamide], for which half-maximal inhibition (IC50) was put at 53.7 nM.
